Source: patent publication US5216015A, “Compounds having hypocholesterolemic properties” (priority 1991, dated 1993)
Like-named read-outs stand apart in the source and are kept apart here. Blank lines part the entries; values can stand above or below the compound they belong to.

Tests used:
sterol synthesis = conditions: et al., cited from earlier work
[1] = Schroepfer, et al., Proc. Natl. Acad. Sci., USA 81, 6861-6865 (1984); cited from earlier work
HMG-CoA reductase [2] = experiment: HMGR Screen: inhibition of HMG-CoA reductase solubilized from rat liver microsomes; assay type: biochemical
Procedure: (§1) The effectiveness of the compounds of this invention as hypocholesterolemic agents may be determined by the following pharmacologic tests which evaluate the HMG-CoA reductase inhibitory activity of said compounds. The HMGR Screen and Ex Vivo Fasted procedures are standard test procedures; the HMG-CoA reductase inhibitory results generally correlate with the HMG-CoA reductase inhibitory activity found in human patients.
Male rats were acclimated to an alternate 12 hours light-dark cycle for a period of 2-3 weeks. The animals, weighing 180-230 g, were fed ad libitum a rat chow containing 2% cholestyramine for 5 days prior to sacrifice at the mid-dark period. Liver microsomes were prepared and HMG-CoA reductase enzyme was solubilized from the microsomes by freeze-thaw manipulation in high ionic strength buffer. The enzyme preparation was stored at -80° C. in 300 μl portion samples. Prior to use, the enzyme was activated by warming at 37° C. for 30 minutes. A reaction mixture was prepared which consisted of, in a volume of 240 μl: 0.14M potassium phosphate buffer (pH 7.0); 0.18M KCl; 3.5 mM EDTA; 10 mM dithiothreitol; 0.1 mg/ml BSA; 30,000 cpm of [^14 C] HMG-CoA; 20 μM HMG-CoA, and 200 μg of activated enzyme with and without compounds of the present invention (in 10 μl DMSO). After 5 minutes incubation at 37° C. the reaction was initiated with 0.2 mM NADPH. The final assay volume was 300 μl. The reaction was then terminated with 100 μl of 1N HCl. After an additional incubation for 15 minutes at 37° C. to allow for complete lactonization of the product, the mixture was diluted with 3 ml distilled water. The diluted mixture was then poured over a 0.7×1.4 cm column containing 100-200 mesh Bio-Rex ion-exchange resin (chloride form of Bio-Rad) which was equilibrated with distilled water. With this resin the unreacted [^14 C] HMG-CoA was adsorbed and the product [^14 C] mevalonolactone was eluted (80% recovery) directly into scintillation vials. After the addition of 10 ml of Aquasol, radioactivities of the samples were measured in a scintillation counter. Results are reported as % inhibition of the enzyme in the presence of a given concentration of a compound of the present invention as compared with the activity of the enzyme in the absence of said compound, i.e., in the absence of inhibitor.

HMG-CoA reductase [3] = conditions: Brown, et al., J. Biol. Chem. 249 (22), 7306 (1974); cited from earlier work
cholesterol synthesis = experiment: Ex-Vivo Fasted: inhibition of cholesterol synthesis in liver slices after oral dosing of fasted rats; conditions: Rattus norvegicus, 1 h, p.o. (Na+ salt), livers removed after one hour
Description: as §1
Rats of 170-210 g were maintained on a low cholesterol diet for one week prior to use. Compounds of the present invention (identified in the table below) were given orally in 0.5% methocel to fasted (fasted for 16 hours) rats. After one hour the rats were decapitated and their livers removed and transferred to chilled oxygenated Kreb's-Ringer-bicarbonate buffer (pH 7.4). The livers were then chopped into 0.5 mm slices using a McIlwain tissue chopper, and were suspended in the same buffer. Aliquots of the suspension containing 100 mg tissue were pipetted to culture tubes which contained [^14 C] sodium octanoate (2 μCi, 3 mM). The tubes were gassed with 95% O2 /CO2, capped and incubated at 37° C. in a shaking water bath at 150 oscillation/min. for two hours. The final assay volume was 1.0 ml. […] After visualization with iodine the cholesterol spots were cut and counted with liquid scintillation fluid. […]

[4] = Schroepfer, J. Biol. Chem. 252 (24), 8975 (1977)
[5] = Kandutsch, J. Biol. Chem. 248 (24), 8408 (1974)

SMILES: CC(C)CCC[C@@H](C)[C@H]1C[C@@H](O)[C@@]2(C)C3=CC[C@H]4C[C@@H](O)CC[C@]4(C)[C@H]3CC[C@]12C [14α-methyl-5α-cholest-7-en-3β,15β-diol]
inhibition of sterol synthesis (sterol synthesis; [4]): potent inhibitors of sterol synthesis

SMILES: CC(C)CCC[C@@H](C)[C@H]1CC(=O)C2=C3CC[C@H]4C[C@@H](O)CC[C@]4(C)[C@H]3CC[C@@]21C [5α-cholest-8(14)-en-3β-ol-15-one]
inhibition of sterol synthesis (sterol synthesis; [4]): potent inhibitors of sterol synthesis
hypocholesterolemic activity [1]: significant hypocholesterolemic acitivity

SMILES: CC(C)CCC[C@@H](C)[C@H]1C[C@H](O)[C@@H]2C3=CC[C@H]4C[C@@H](O)CC[C@]4(C)[C@H]3CC[C@]12C [5α,14β-cholest-7-en-3β,15α-diol]
inhibition of sterol synthesis (sterol synthesis; [4]): potent inhibitors of sterol synthesis

SMILES: CCC(C)(C)C(=O)O[C@H]1C[C@H]2[C@@H](CC[C@@H]3C[C@H](O)CC[C@@]32C)[C@@H]2CC[C@H]([C@H](C)CC3CC(O)CC(=O)O3)[C@@]12C (stereo partly drawn) [Example 2, 12α-(2,2-dimethyl)butyryloxy-3α-hydroxy-17β-[3-(4(R)-hydroxy-3,4,5,6-tetrahydro-2H-pyran-2-on-6(R)-yl)-2(R)-2-propyl]-5β-androstane and 12α-(2,2-dimethyl)butyryloxy-3α-hydroxy-17β-[3-(4(S)-hydroxy-3,4,5,6-tetrahydro-2H-pyran-2-on-6(S)-yl)-2(R)-2-propyl]-5β-androstane]
HMGR Screen % Inhibition (HMG-CoA reductase [2]; Lactone Form, at 30 μM): 33%
HMGR Screen % Inhibition (HMG-CoA reductase [2]; Ring-opened/Sodium Salt, at 352 nM): 50%

SMILES: CC(C)CCC[C@@H](C)[C@H]1CC[C@H]2[C@@H]3[C@H](O)C=C4C[C@@H](O)CC[C@]4(C)[C@H]3CC[C@]12C [7α-hydroxycholesterol]
inhibition of sterol synthesis (sterol synthesis; [5]): inhibit sterol synthesis

SMILES: CC(C)CCC[C@@H](C)[C@H]1CC[C@H]2[C@@H]3[C@@H](O)C=C4C[C@@H](O)CC[C@]4(C)[C@H]3CC[C@]12C [7β-hydroxycholesterol]
inhibition of sterol synthesis (sterol synthesis; [5]): inhibit sterol synthesis

SMILES: CC(C)CCC[C@@H](C)[C@H]1CC[C@H]2[C@@H]3C(=O)C=C4C[C@@H](O)CC[C@]4(C)[C@H]3CC[C@]12C [7-ketocholesterol]
inhibition of sterol synthesis (sterol synthesis; [5]): inhibit sterol synthesis
suppression of HMG-CoA reductase activity (HMG-CoA reductase [3]): suppress HMG-CoA reductase activity

SMILES: CC(C)CCC[C@@H](C)[C@H]1CC(=O)[C@@]2(C)C3=CC[C@H]4C[C@@H](O)CC[C@]4(C)[C@H]3CC[C@]12C [14α-methyl-5α-cholest-7-en-3β-ol-15-one]
inhibition of sterol synthesis (sterol synthesis; [4]): potent inhibitors of sterol synthesis

SMILES: CC(C)CCC[C@@H](C)[C@H]1CC(O)C2=C3C(O)C[C@H]4C[C@@H](O)CC[C@]4(C)[C@H]3CC[C@@]21C (stereo partly drawn) [5α-cholest-8(14)-en-3β,7.xi.,15.xi.-triol]
inhibition of sterol synthesis (sterol synthesis; [4]): potent inhibitors of sterol synthesis

SMILES: CC(C)CCC[C@@H](C)[C@H]1C[C@H](O)[C@@]2(C)C3=CC[C@H]4C[C@@H](O)CC[C@]4(C)[C@H]3CC[C@]12C [14α-methyl-5α-cholest-7-en-3β,15α-diol]
inhibition of sterol synthesis (sterol synthesis; [4]): potent inhibitors of sterol synthesis

SMILES: CCC(C)(C)C(=O)O[C@H]1C[C@H]2[C@@H]([C@H](OC(C)=O)C[C@@H]3C[C@H](O)CC[C@@]32C)[C@@H]2CC[C@H]([C@H](C)CC3CC(O)CC(=O)O3)[C@@]12C (stereo partly drawn) [Example 3, 7α-acetoxy-12α-(2,2-dimethyl)butyryloxy-3α-hydroxy-17β-[3-(4(R)-hydroxy-3,4,5,6-tetrahydro-2H-pyran-2-on-6(R)-yl)-2(R)-2-propyl]-5β-androstane and 7α-acetoxy-12α-(2,2-dimethyl)butyryloxy-3α-hydroxy-17β-[3-(4(S)-hydroxy-3,4,5,6-tetrahydro-2H-pyran-2-on-6(S)-yl)-2(R)-2-propyl]-5β-androstane]
HMGR Screen % Inhibition (HMG-CoA reductase [2]; Lactone Form, at 30 μM): 23%
HMGR Screen % Inhibition (HMG-CoA reductase [2]; Ring-opened/Sodium Salt, at 300 nM): 21%

HMGR Screen % Inhibition (HMG-CoA reductase [2]; Lactone Form, at 5.9 μM): 50%
HMGR Screen % Inhibition (HMG-CoA reductase [2]; Ring-opened/Sodium Salt, at 228 nM): 50%
SMILES: CCC(C)(C)C(=O)O[C@H]1C[C@H]2[C@@H](CC[C@@H]3C[C@H](O)CC[C@@]32C)[C@@H]2CCC=C(/C=C/C3CC(O)CC(=O)O3)[C@@]12C (stereo partly drawn) [Example 1, 12α-(2,2-dimethyl)butyryloxy-3α-hydroxy-17a-[E-2-(4(R)-hydroxy-3,4,5,6-tetrahydro-2H-pyran-2-on-6(S)-yl)ethenyl]-D-homo-5β-androst-17-ene and 12α-(2,2-dimethyl)butyryloxy-3α-hydroxy-17a-[E-2-(4(S)-hydroxy-3,4,5,6-tetrahydro-2H-pyran-2-on-6(R)-yl)ethenyl]-D-homo-5β-androst-17-ene]

SMILES: CO[C@H]1CC[C@@]2(C)[C@@H](CC=C3[C@@H]2CC[C@]2(C)[C@@H]([C@H](C)CCCC(C)C)C[C@@H](O)[C@@]32C)C1 [3β-methoxy-14α-methyl-5α-cholest-7-en-15β-ol]
inhibition of sterol synthesis (sterol synthesis; [4]): potent inhibitors of sterol synthesis

SMILES: CC(C)CCC[C@@H](C)[C@H]1C[C@@H](O)[C@@H]2C3=CC[C@H]4C[C@@H](O)CC[C@]4(C)[C@H]3CC[C@]12C [5α,14β-cholest-7-en-3β,15β-diol]
inhibition of sterol synthesis (sterol synthesis; [4]): potent inhibitors of sterol synthesis

SMILES: CC(C)CCC[C@@H](C)[C@H]1C[C@@H](O)C2=C3CC[C@H]4C[C@@H](O)CC[C@]4(C)[C@H]3CC[C@@]21C [5α-cholest-8(14)-en-3β,15β-diol]
inhibition of sterol synthesis (sterol synthesis; [4]): potent inhibitors of sterol synthesis

SMILES: CO[C@H]1CC[C@@]2(C)[C@@H](CC=C3[C@@H]2CC[C@]2(C)[C@@H]([C@H](C)CCCC(C)C)C[C@H](O)[C@@]32C)C1 [3β-methoxy-14α-methyl-5α-cholest-7-en-15α-ol]
inhibition of sterol synthesis (sterol synthesis; [4]): potent inhibitors of sterol synthesis

HMGR Screen % Inhibition (HMG-CoA reductase [2]; Lactone Form, at 1.6 μM): 50%
HMGR Screen % Inhibition (HMG-CoA reductase [2]; Ring-opened/Sodium Salt, at 16.9 nM): 50%
SMILES: CCC(C)(C)C(=O)O[C@H]1C[C@H]2C(=C3CC[C@H](CC[C@@H]4C[C@@H](O)CC(=O)O4)[C@]31C)CC[C@@H]1C[C@H](O)CC[C@@]12C [Example 5, 12α-(2,2-dimethyl)butyryloxy-3α-hydroxy-17β-[2-(4(R)-hydroxy-3,4,5,6-tetrahydro-2H-pyran-2-on-6(R)-yl)-ethyl]-5β-androst-8(14)-ene]
inhibition at 3 mg/kg (cholesterol synthesis): 47%

HMGR Screen % Inhibition (HMG-CoA reductase [2]; Lactone Form, at 3 μM): 19%
HMGR Screen % Inhibition (HMG-CoA reductase [2]; Ring-opened/Sodium Salt, at 119 nM): 50%
SMILES: CCC(C)(C)C(=O)O[C@H]1C[C@H]2C(=C3CC[C@H]([C@H](C)CC4CC(O)CC(=O)O4)[C@]31C)CC[C@@H]1C[C@H](O)CC[C@@]12C (stereo partly drawn) [Example 4, 12α-(2,2-dimethyl)butyryloxy-3α-hydroxy-17β-[3-(4(R)-hydroxy-3,4,5,6-tetrahydro-2H-pyran-2-on-6(R)-yl)-2(R)-2-propyl]-5β-androst-8(14)ene and 12α-(2,2-dimethyl)butyryloxy-3α-hydroxy-17β-[3-(4(S)-hydroxy-3,4,5,6-tetrahydro-2H-pyran-2-on-6(S)-yl)-2(R)-2-propyl]-5β-androst-8(14)-ene]

SMILES: CC(C)CCC[C@@H](C)[C@H]1C[C@H](O)C2=C3CC[C@H]4C[C@@H](O)CC[C@]4(C)[C@H]3CC[C@@]21C [5α-cholest-8(14)-en-3β,15α-diol]
inhibition of sterol synthesis (sterol synthesis; [4]): potent inhibitors of sterol synthesis
